Measured values: patent US11076597B2, “High stress resistant plant growth regulator and preparation method and use thereof” (SHANGHAI INSTITUTES FOR BIOLOGICAL SCIENCES, CHINESE …, priority 2015, dated 2021)

How the values were obtained:
[1] = system: soybean GmPYL6 protein; experiment: AlphaScreen assay, soybean GmPYL6 with Arabidopsis AtHAB1; type: biochemical; settings: fraction of the EC50 of ABA; FIG. 13
Method: (§1) The AlphaScreen kit (available from Perkin Elmer) was used, and the method was as follows: a 10× buffer (50 mM MOPS, pH 7.4, 50 mM NaF, 50 mM CHAPS, 0.1 mg/ml bovine serum albumin) diluted at 1:10, each of 100 nM HAB1 with Biotin tag sequence and PYR1/PYL1/PYL2/PYL7/GmPYL6/OsPYL2 protein with dual tags of 6×His and SUMO sequences, corresponding concentrations of (+)-ABA/0224/0304/0706/0708/0713/0715/0428/NC0F4, and 5 μg/ml donor beads and acceptor beads (available from Perkin Elmer) were contained in 150 μl of experimental system. After incubating for 1.5 hours at room temperature in the dark, it was placed into an Envision Plate Reader (available from Perkin Elmer) under the programmed AlphaScreen procedure for readings.

[2] = target: T1, rice OsPYL2 protein (Oryza sativa subsp. japonica, UniProt Q5Z8S0); experiment: AlphaScreen assay, rice OsPYL2 with Arabidopsis AtHAB1; type: biochemical; settings: fraction of the EC50 of ABA; FIG. 13
T1 construct: made in house; host or cells: E. coli BL21 (DE3)
T1 sequence (Q5Z8S0 1-207): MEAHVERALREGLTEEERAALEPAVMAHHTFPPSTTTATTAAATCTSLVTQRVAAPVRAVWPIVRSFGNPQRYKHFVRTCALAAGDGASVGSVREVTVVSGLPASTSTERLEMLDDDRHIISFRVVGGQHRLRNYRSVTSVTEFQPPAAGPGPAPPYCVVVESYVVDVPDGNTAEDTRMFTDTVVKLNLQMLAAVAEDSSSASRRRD
T1 sequence (Q9CAJ0 172-511 partner limits assumed): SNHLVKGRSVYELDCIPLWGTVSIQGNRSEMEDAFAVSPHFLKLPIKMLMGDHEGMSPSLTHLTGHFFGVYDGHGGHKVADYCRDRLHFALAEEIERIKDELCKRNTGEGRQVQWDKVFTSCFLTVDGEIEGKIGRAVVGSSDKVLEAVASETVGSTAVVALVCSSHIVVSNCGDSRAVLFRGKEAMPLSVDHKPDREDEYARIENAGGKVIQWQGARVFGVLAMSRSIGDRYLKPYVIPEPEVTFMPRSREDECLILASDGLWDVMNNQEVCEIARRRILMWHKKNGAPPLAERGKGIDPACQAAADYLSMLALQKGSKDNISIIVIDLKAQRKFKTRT
Method: as §1

[3] = target: T2, rice OsPYL2 + Arabidopsis AtHAB1 (Oryza sativa subsp. japonica, UniProt Q5Z8S0); experiment: AlphaScreen assay: promotion of the interaction of rice OsPYL2 with Arabidopsis HAB1; type: binding, rice (OsPYL2); Arabidopsis thaliana (HAB1); settings: FIG. 13b; 6×His-SUMO-tagged rice OsPYL2, Biotin-tagged Arabidopsis HAB1 (aa 172-511), 100 nM each; pH 7.4; 1.5 h room temperature
T2 construct: made in house; host or cells: E. coli BL21 (DE3)
T2 sequence (Q5Z8S0 1-207): T1 sequence (Q5Z8S0 1-207)
T2 sequence (Q9CAJ0 172-511 partner limits assumed): T1 sequence (Q9CAJ0 172-511 partner limits assumed)
Source text: Compound 0428 can promote the interaction of the Arabidopsis protein phosphatase HAB1 with soybean GmPYL6 or rice OsPYL2, and this interaction is dose-dependent.
The construction method of recombinant plasmids for the Arabidopsis thaliana genes PYL1 (amino acid sequence 36-211), PYL2 (amino acid sequence 14-188) with dual tags of 6×His and SUMO sequence and the Arabidopsis thaliana gene HAB1 (amino acid sequence 172-511) with the Biotin tag sequence is described in detail in “A gate-latch-lock mechanism for hormone signaling by abscisic acid receptors” (Nature, Vol 462, 2009). The construction method of recombinant plasmids for PYR1 and PYL7 (whole gene coding sequence) and Soybean GmPYL6 and rice OsPYL2 with dual tags of 6×His and SUMO sequence is the same as that for Arabidopsis PYL2.
The above recombinant plasmid is transformed into competent cell of E. coli BL21 (DE3) (purchased from NEB company), and inoculated into 200 ml of LB liquid medium containing Amp resistance (purchased from OXOID company) and cultured overnight at 37° C. at 200 rpm; and inoculated into 2 L of LB liquid medium containing Amp resistance at a ratio of 1:50-1:100 for an extended culture, and cultured at 37° C., 200 rpm for 3-4 hours, and at a low temperature of 16° C. until OD600 is about 0.8-1.0. […]

With `CCCN1C(=O)OCc2cc(NS(=O)(=O)Cc3c(F)c(F)c(C)c(F)c3F)ccc21` [Compound 0428] the “EC50 value for soybean GmPYL6 as fraction of that of ABA” value [1] was “about 1/14” and the “EC50 value for rice OsPYL2 as fraction of that of ABA” value [2] was “⅓”.
Compound `CC1=CC(=O)CC(C)(C)[C@@]1(O)/C=C/C(C)=C\C(=O)O` [ABA, Abscisic Acid, reference compound] has an EC50 [3] of 149 nM.
